# Counter-ions that a name gives are not always drawn. Like-named read-outs stand apart in the source and are kept apart here.
# Tested on: HIV wild type (WTRVA)
# Assay: HeLa cell assay, wild type virus (WTRVA)
# Type: cell-based, HIV-1
# Set-up: scale not given here
# Conditions: Human immunodeficiency virus 1, HeLa
# [1] = HeLa-CD4-LTR-β-gal cells, wild type virus, read-out: WTRVA activity level
# [2] = HeLa cell assay, read-out: IC50 against WTRVA
SMILES,IC50 [1] [nM],IC50 [2] [nM]
"Cc1nc2ccccn2c1C(=O)NCc1ccc(Cl)c(Oc2cc(Cl)cc(C#N)c2)c1F [Example 97, N-({4-chloro-3-[(3-chloro-5-cyanophenyl)oxy]-2-fluorophenyl}methyl)-2-methylimidazo[1,2-a]pyridine-3-carboxamide trifluoroacetate]",< 10,–
"COc1ccc2[nH]c3c(c2c1)CCN(Cc1ccc(Cl)c(Oc2cc(Cl)cc(C#N)c2)c1F)C3=O [Example 38, 3-chloro-5-[(6-chloro-2-fluoro-3-{[6-(methyloxy)-1-oxo-1,3,4,9-tetrahydro-2H-β-carbolin-2-yl]methyl}phenyl)oxy]benzonitrile]",10 to 1000,–
"Cc1nc(Cl)c(C(=O)NCc2ccc(Br)c(Oc3cc(Cl)cc(C#N)c3)c2F)[nH]1 [Example 231, N-({4-bromo-3-[(3-chloro-5-cyanophenyl)oxy]-2-fluorophenyl}methyl)-4-chloro-2-methyl-1H-imidazole-5-carboxamide trifluoroacetate]",–,< 10
"CC(C)(C)OC(=O)N1CCC[C@H]1C(=O)Nc1ccc2[nH]c(C(=O)NCc3ccc(Cl)c(Oc4cc(Cl)cc(C#N)c4)c3F)cc2c1 [Example 117, 1,1-dimethylethyl (2S)-2-{[(2-{[({4-chloro-3-[(3-chloro-5-cyanophenyl)oxy]-2-fluorophenyl}methyl)amino]carbonyl}-1H-indol-5-yl)amino]carbonyl}-1-pyrrolidinecarboxylate]",< 10,–
"CCc1nc(Cl)c(C(=O)NCc2ccc(Cl)c(Oc3cc(Cl)cc(C#N)c3)c2F)[nH]1 [Example 77, 4-chloro-N-({4-chloro-3-[(3-chloro-5-cyanophenyl)oxy]-2-fluorophenyl}methyl)-2-ethyl-1H-imidazole-5-carboxamide trifluoroacetate]",< 10,–
"N#Cc1cc(CC2CC2)cc(Oc2c(Cl)ccc(CNC(=O)c3[nH]cnc3Cl)c2F)c1 [Example 157, 4-chloro-N-[(4-chloro-3-{[3-cyano-5-(cyclopropylmethyl)phenyl]oxy}-2-fluorophenyl)methyl]-1H-imidazole-5-carboxamide]",–,< 10
"CSc1ncc(C(=O)NCc2ccc(Cl)c(Oc3cc(Cl)cc(C#N)c3)c2F)[nH]1 [Example 66, N-({4-chloro-3-[(3-chloro-5-cyanophenyl)oxy]-2-fluorophenyl}methyl)-2-(methylthio)-1H-imidazole-4-carboxamide trifluoroacetate]",10 to 1000,–
"Cc1[nH]c(C(=O)NCc2ccc(Cl)c(Oc3cc(Cl)cc(C#N)c3)c2F)c(C)c1C#N [Example 71, N-({4-chloro-3-[(3-chloro-5-cyanophenyl)oxy]-2-fluorophenyl}methyl)-4-cyano-3,5-dimethyl-1H-pyrrole-2-carboxamide trifluoroacetate]",< 10,–
"CC#Cc1cc(C#N)cc(Oc2c(Cl)ccc(CNC(=O)c3[nH]cnc3Cl)c2F)c1 [Example 317, 4-chloro-N-[(4-chloro-3-{[3-cyano-5-(1-propyn-1-yl)phenyl]oxy}-2-fluorophenyl)methyl]-1H-imidazole-5-carboxamide]",–,< 10
"N#Cc1cc(Cl)cc(Oc2c(Cl)ccc(CNC(=O)c3cc4cccc(O)c4[nH]3)c2F)c1 [Example 32, N-({4-chloro-3-[(3-chloro-5-cyanophenyl)oxy]-2-fluorophenyl}methyl)-7-hydroxy-1H-indole-2-carboxamide]",10 to 1000,–
"N#Cc1cc(Cl)cc(Oc2cc(CNC(=O)c3ccc(S(N)(=O)=O)cc3Cl)ccc2Cl)c1 [Example 4, 4-(aminosulfonyl)-2-chloro-N-({4-chloro-3-[(3-chloro-5-cyanophenyl)oxy]phenyl}methyl)benzamide trifluoroacetate]",10 to 1000,–
"Cn1c(C(=O)NCc2ccc(Cl)c(Oc3cc(Cl)cc(C#N)c3)c2F)cc2ccccc21 [Example 45, N-({4-chloro-3-[(3-chloro-5-cyanophenyl)oxy]-2-fluorophenyl}methyl)-1-methyl-1H-indole-2-carboxamide]",10 to 1000,–
"CC(C)c1cc(C#N)cc(Oc2c(Cl)ccc(CNC(=O)c3[nH]cnc3Cl)c2F)c1 [Example 159, 4-chloro-N-[(4-chloro-3-{[3-cyano-5-(1-methylethyl)phenyl]oxy}-2-fluorophenyl)methyl]-1H-imidazole-5-carboxamide]",–,< 10
"N#Cc1cc(Cl)cc(Oc2c(Cl)ccc(CNC(=O)c3ccccn3)c2F)c1 [Example 85, N-({4-chloro-3-[(3-chloro-5-cyanophenyl)oxy]-2-fluorophenyl}methyl)-2]",< 10,–
"CS(=O)(=O)c1ccc(C(=O)NCc2ccc(Cl)c(Oc3cc(Cl)cc(C#N)c3)c2F)cc1 [Example 92, N-({4-chloro-3-[(3-chloro-5-cyanophenyl)oxy]-2-fluorophenyl}methyl)-4-(methylsulfonyl)benzamide]",10 to 1000,–
"N#Cc1cc(Cl)cc(Oc2c(Cl)ccc(CNC(=O)c3cnccn3)c2F)c1 [Example 87, N-({4-chloro-3-[(3-chloro-5-cyanophenyl)oxy]-2-fluorophenyl}methyl)-2-pyrazinecarboxamide trifluoroacetate]",< 10,–

SMILES,IC50 [1] [nM],IC50 [2] [nM]
"COc1ccc2c(C(=O)NCc3ccc(Cl)c(Oc4cc(Cl)cc(C#N)c4)c3)c[nH]c2c1 [Example 3, N-({4-chloro-3-[(3-chloro-5-cyanophenyl)oxy]phenyl}methyl)-6-(methyloxy)-1H-indole-3-carboxamide]",> 1000,–
"C=Cc1ccc(CNC(=O)c2[nH]c(C)nc2Cl)c(F)c1Oc1cc(Cl)cc(C#N)c1 [Example 269, 4-Chloro-N-({3-[(3-chloro-5-cyanophenyl)oxy]-4-ethenyl-2-fluorophenyl}methyl)-2-methyl-1H-imidazole-5-carboxamide]",–,< 10
"COc1n[n+]([O-])cc2cc(C(=O)NCc3ccc(Cl)c(Oc4cc(Cl)cc(C#N)c4)c3F)[nH]c12 [Example 82, N-({4-chloro-3-[(3-chloro-5-cyanophenyl)oxy]-2-fluorophenyl}methyl)-7-(methyloxy)-1H-pyrrolo[2,3-d]pyridazine-2-carboxamide 5-oxide trifluoroacetate]",10 to 1000,–
"N#Cc1cc(Cl)cc(Oc2c(Cl)ccc(CNC(=O)c3ccc[nH]3)c2F)c1 [Example 57, N-({4-chloro-3-[(3-chloro-5-cyanophenyl)oxy]-2-fluorophenyl}methyl)-1H-pyrrole-2-carboxamide]",< 10,–
"C=CCc1cc(C#N)cc(Oc2c(Cl)ccc(CNC(=O)c3[nH]cnc3Cl)c2F)c1 [Example 156, 4-chloro-N-[(4-chloro-3-{[3-cyano-5-(2-propen-1-yl)phenyl]oxy}-2-fluorophenyl)methyl]-1′-1H-imidazole-5-carboxamide]",–,< 10
"Cc1cc(C#N)cc(Oc2c(Cl)ccc(CNC(=O)c3[nH]c(C)nc3Cl)c2F)c1 [Example 305, 4-chloro-N-({4-chloro-3-[(3-cyano-5-methylphenyl)oxy]-2-fluorophenyl}methyl)-2-methyl-1H-imidazole-5-carboxamide trifluoroacetate]",–,< 10
"Cc1nn(-c2ccccc2)nc1C(=O)NCc1ccc(Cl)c(Oc2cc(Cl)cc(C#N)c2)c1F [Example 96, N-({4-chloro-3-[(3-chloro-5-cyanophenyl)oxy]-2-fluorophenyl}methyl)-5-methyl-2-phenyl-2H-1,2,3-triazole-4-carboxamide trifluoroacetate]",10 to 1000,–
"N#Cc1cc(Cl)cc(Oc2c(Cl)ccc(CNC(=O)c3cc4cc(NC(=O)CN)ccc4[nH]3)c2F)c1 [Example 120, N-({4-chloro-3-[(3-chloro-5-cyanophenyl)oxy]-2-fluorophenyl}methyl)-5-(glycylamino)-1H-indole-2-carboxamide trifluoroacetate]",< 10,–
"N#Cc1cc(Cl)cc(Oc2c(Cl)ccc(CNC(=O)c3cc4cc(N(CC5CC5)CC5CC5)ccc4[nH]3)c2F)c1 [Example 127, 5-[bis(cyclopropylmethyl)amino]-N-({4-chloro-3-[(3-chloro-5-cyanophenyl)oxy]-2-fluorophenyl}methyl)-1H-indole-2-carboxamide]",10 to 1000,–
"Cc1nc(Cl)c(C(=O)NCc2ccc(C(F)F)c(Oc3cc(Cl)cc(C#N)c3)c2F)[nH]1 [Example 254, 4-chloro-N-{[3-[(3-chloro-5-cyanophenyl)oxy]-4-(difluoromethyl)-2-fluorophenyl]methyl}-2-methyl-1H-imidazole-5-carboxamide]",–,< 10
"Cc1cc(C)c(C(=O)NCc2ccc(Cl)c(Oc3cc(Cl)cc(C#N)c3)c2F)[nH]1 [Example 62, N-({4-chloro-3-[(3-chloro-5-cyanophenyl)oxy]-2-fluorophenyl}methyl)-3,5-dimethyl-1H-pyrrole-2-carboxamide trifluoroacetate]",< 10,–
"CS(=O)(=O)c1cc(F)cc2cc(C(=O)NCc3ccc(Cl)c(Oc4cc(Cl)cc(C#N)c4)c3F)[nH]c12 [Example 33, N-({4-chloro-3-[(3-chloro-5-cyanophenyl)oxy]-2-fluorophenyl}methyl)-5-fluoro-7-(methylsulfonyl)-1H-indole-2-carboxamide]",10 to 1000,–
"COc1ccc2cc(C(=O)NCc3ccc(Cl)c(Oc4cc(Cl)cc(C#N)c4)c3F)[nH]c2c1 [Example 21, N-({4-chloro-3-[(3-chloro-5-cyanophenyl)oxy]-2-fluorophenyl}methyl)-6-(methyloxy)-1H-indole-2-carboxamide]",10 to 1000,–
"Cn1cncc1C(=O)NCc1ccc(Cl)c(Oc2cc(Cl)cc(C#N)c2)c1F [Example 67, N-({4-chloro-3-[(3-chloro-5-cyanophenyl)oxy]-2-fluorophenyl}methyl)-1-methyl-1H-imidazole-5-carboxamide trifluoroacetate]",10 to 1000,–
"N#Cc1cc(Cl)cc(Oc2c(Cl)ccc(CNC(=O)c3ncc[nH]3)c2F)c1 [Example 59, N-({4-chloro-3-[(3-chloro-5-cyanophenyl)oxy]-2-fluorophenyl}methyl)-1H-imidazole-2-carboxamide trifluoroacetate]",< 10,–
"N#Cc1cc(Cl)cc(Oc2c(Br)ccc(CNC(=O)c3[nH]cnc3Cl)c2F)c1 [Example 378, N-({4-bromo-3-[(3-chloro-5-cyanophenyl)oxy]-2-fluorophenyl}methyl)-4-chloro-1H-imidazole-5-carboxamide]",–,< 10

# Reference: patent US8304419B2, “Chemical compounds” (priority 2007, dated 2012)
